Results published in US20190031773A1, “INHIBITORS AND ANTAGONISTS OF HUMAN PYCR1” (AGENCY FOR SCIENCE, TECHNOLOGY AND RESEARCH, priority 2017, published 2019).

Columns and labels:
[1] = molecular target: T1, PYCR1 full length recombinant enzyme (aa 1-319) (Homo sapiens, UniProt P32322); experiment: PYCR1 Inhibition Assay (NAD(P)H-Glo luminescence); type: biochemical; settings: 5 mM L-proline + 0.5 mM NAD+, 4.2 nM enzyme, 45 min at room temperature
T1 construct: PYCR1 full length recombinant enzyme (aa 1-319) with a 6His-tag at the N-terminus; 6His (N); made in house; host or cells: E. coli
T1 sequence (P32322 1-319): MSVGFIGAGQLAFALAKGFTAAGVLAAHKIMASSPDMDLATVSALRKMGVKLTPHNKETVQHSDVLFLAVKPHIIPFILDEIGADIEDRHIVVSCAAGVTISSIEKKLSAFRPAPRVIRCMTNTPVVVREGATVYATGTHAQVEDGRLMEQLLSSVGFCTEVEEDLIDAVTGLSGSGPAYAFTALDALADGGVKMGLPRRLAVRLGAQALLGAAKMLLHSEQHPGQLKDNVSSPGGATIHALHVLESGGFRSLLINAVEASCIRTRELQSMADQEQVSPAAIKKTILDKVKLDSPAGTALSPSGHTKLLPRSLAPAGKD
Text: An example for such assay may look as follows:
The assay is based on the ability of PYCR1 to catalyze the oxidation of L-proline to L-1 pyrroline-5-carboxylate which occurs concomitant with the reduction of the cosubstrate NAD^+ to its reduced form NADH+H^+. The amount of NADH+H^+ was quantified using the NAD(P)H-Glo™ kit from Promega (catalogue number G9062). Components of the kit generate a luciferase-based luminescence signal the intensity of which is linearly proportional to the amount of NADH+H^+ generated by the PYCR1 reaction and consequently the PYCR1 activity. The luminescence intensity was taken as the measure for the amount of NADH+H^+ generated by PYCR1. […] 40 nl Test compound (dissolved and serially diluted in DMSO at final concentrations during the enzymatic reaction ranging from 6.9E-09 M to 4.5E-05 M) is added to the well of a white 1536-well microtiter plate using an acoustic dispenser (Echo Liquid Handler from Labcyte Inc.) • 2. […] Preincubation of enzyme and test compound for approximately 15 min at room temperature • 4. Add 2.0 μl Substrate mix in assay buffer (5 mM L-proline+0.5 mM NAD^+ final concentration during the enzymatic reaction) • 5. 45 min PYCR1 reaction at room temperature (linear range of the enzymatic reaction) • 6. Add 1.0 μl Stopping agent in assay buffer (2 mM ZnCl2 final concentration) • 7. Incubate for 15 min at room temperature • 8. Add 2.0 μl NAD(P)H-Glo™ reagent (Promega) • 9. Incubate for 30-150 min at room temperature for generation of the persistent luminescence signal • 10. Measure luminescence intensity in a ViewLux Imager (PerkinElmer)

rat MH3924A cells [2] = tested on: rat MH3924A cells
Protocol: Morris hepatoma cells (MH3924A) were cultured in Dulbecco's modified eagle medium (DMEM) media supplemented with 10% fetal bovine serum (FBS), 100 IU/ml penicillin, 100 μg/ml streptomycin. To assess cell proliferation, cells were seeded in T25 flasks and incubated in DMEM complete medium for 24 hours to allow attachment. Subsequently, seeding cells were infected with shRNA lentivirus in the presence of 8μg/ ml of polybrene for about 7 hours, cells were grown for varying lengths of time, at the end of which they were detached by trypsinization and counted with Countess (Life Technologies, Carlsbad, USA).

rat MH3924A cells [3] = experiment: Subcutaneous MH3924A xenograft model; type: in vivo; settings: scid mice
Text: Female scid mice (InVivos, Singapore) were subcutaneously inoculated with 1×10^6rat MH3924A cells that were stably transfected with either shRNA Pycr1.2 or scrambled control shRNA. Mice were sacrificed and tumors excised 3 weeks later.

rat MH3924A cells [4] = experiment: Orthotopic MH3924A xenograft models, doxycycline-inducible shRNA; type: in vivo, scid mice; settings: preventive setting, knockdown induced by doxycycline one day after orthotopic implantation
Text: The HCC model was created by the direct intrahepatic injection of rat MH3924A cells harboring inducible shRNA Pycr1.2 or scrambled shRNA constructs into scid mice (InVivos, Singapore). The mice were anesthetized and a midline incision was made to expose the liver. The cells were then slowly injected under the hepatic capsule into the upper left lobe of the liver using a 27-G needle. A pale, whitish color could be observed at the point of injection under the hepatic capsule. Gentle compression was applied with a cotton applicator to stop bleeding and reflux of the cells. The abdomen was closed with a 4-0 silk suture.
In the preventive setting (FIG. 7), shRNA expression was induced the day after cell injection by adding 1 μg/ml doxycycline to the drinking water. Two weeks later, animals were sacrificed and tumors excised for analysis (n=5).
In the therapeutic setting, mice were subjected to liver MRI (magnetic resonance imaging) 7 days (1st experiment, FIG. 8) or 10 days (2nd experiment, FIG. 9) after cell injection and shRNA expression was induced one or four days later by adding 1 μg/ml doxycycline to the drinking water. On day 19 (1st experiment) or 21 (2nd experiment), animals were subjected to liver MRI and sacrificed. Tumors were lysed and analyzed for PYCR1 by Western blot.

`O=C(CCCc1nc(-c2ccc(Cl)cc2)no1)Nc1ccccc1C(=O)O` [2-({4-[3-(4-chlorophenyl)-1,2,4-oxadiazol-5-yl]butanoyl}amino)benzoic acid] was tested, and the IC50 [1] was 8 µM.

Compound `O=C(Cc1ccc(C(=O)O)cc1)NC(c1ccccc1)c1ccccc1N1CCCCC1` (centres unmarked) [4-(2-oxo-2-{[phenyl(2-piperidin-1-ylphenyl)methyl]amino}ethyl)benzoic acid] has an IC50 [1] of 7.3 µM.

Compound `COc1ccc(C(=O)c2oc3ccccc3c2CSCCC(=O)OC(C)(C)C)cc1C(=O)O` [5-[(3-{[(3-tert-butoxy-3-oxopropyl)thio]methyl}-1-benzofuran-2-yl)carbonyl]-2-methoxybenzoic acid] has an IC50 [1] of 8.5 µM.

With “shRNA Pycr1.2: Rat PYCR1.2 shRNA: GAACCTGACACCCCACAACAA, short hairpin oligonucleotide targeting rat Pycr1 in lentiviral vector pLKO or pLKO-Tet” the cell growth (rat MH3924A cells [2]; doxycycline-inducible PYCR1 knockdown MH3924A cell line, with vs without doxycycline) was “reduced cell growth”, the cell proliferation (rat MH3924A cells [2]; rat MH3924A cells, shRNA knockdown vs scrambled shRNA) was “reduced proliferation” and the tumor weight (rat MH3924A cells [3]; MH3924A cells stably expressing shRNA, 3 weeks, n=5) was “significantly reduced”. The “tumor growth in vivo” value (rat MH3924A cells [3]; tumors excised 3 weeks later) was “significantly inhibited tumor growth” and the tumor growth (rat MH3924A cells [4]) was “significantly reduced tumor growth”.
